Several values for one entry are separate records, joined by “and”; a condition that tells them apart may be missing. Identical values can stand only once.
Legend:
[1] = test system: T-47D breast adenocarcinoma cells; experiment: Cell size by flow cytometry (mean FSC-H, G1 phase); format: cell-based, human; conditions: 10 μM
Procedure: FIG. 31A is a differential interference contrast (DIC) image of MDA-MB-468 breast adenocarcinoma cells treated for ˜20 hours with DMSO (drug vehicle control), 10 μM IPAG (antagonist) or 10 μM PRE084 (agonist). A twenty-micron bar is shown in each image. Data are presented as mean±SEM. FIG. 31B is a graph illustrating the finding that IPAG diminished the mean cell size (FSC-H) of MDA-MB-468 breast tumor cells in a time-responsive manner. The mean FSC-H of 370±5 at to decreased to 323±4 after 24 hours of IPAG treatment and to 267±2 after 48 hours of treatment. Two-tailed t-tests were performed to determine statistical significance. For IPAG treatment compared to control (DMSO) and Sigma agonists (SKF and PRE084), P=0.0002 at d1 and P=0.00013 at d2. Data were generated from three to five independent determinations for each time-point. Flow cytometry was used to measure mean cell size (mean FSC-H) of T-47D breast adenocarcinoma cells. FIG. 31C is a bar graph illustrating T-47D cells treated for 24 hours with 10 μM indicated Sigma ligand. IPAG and BD 1047 (Sigma1 antagonists) diminished cell size from a mean FSC-H of 412±5 for control (DMSO) cells versus 341±7 and 381±8 for IPAG and BD1047 treated cells, respectively. […] Data represent 5 independent determinations (*P<0.05, ***P<0.001). FIG. 31D is a bar graph illustrating how IPAG (antagonist) decreases cell size in a dose responsive manner. T-47D were treated for 24 h with 1 and 10 μM IPAG, and mean FSC-H was measured. FIG. 31E is a graph illustrating that T47D cell size decreases over time. T-47D cells were treated for a total of 48 hours with 10 μM of the indicated Sigma ligands. […] Neither Sigma1 agonist, (+)-SKF10047 and PRE084, altered cell size. […] Two-tailed t-tests were performed to determine statistical significance. For IPAG treatment compared to control (DMSO) and Sigma1 agonists (SKF and PRE084), P=0.0002 at d1 and P<0.0001 at d2. For FIGS. 31B-31E, the mean FSC-H was determined for each cell cycle population (i.e., G1, S, G2/M), and data is shown for G1 phase cells. S and G2/M phase cells responded similarly (data not shown).

[2] = test system: MCF-7, T47D and MDA-MB-468 cells; experiment: Cell proliferation by Alamar blue reduction, breast adenocarcinoma cultures; format: cell-based, human; conditions: after 4 days of treatment, six drug concentrations
Description: In vitro cell proliferation was quantitated by Alamar blue reduction. The anti-proliferative effects of six drug concentrations of the indicated drugs were quantitated after 4 days of treatment.

PC3 and DU145 PCa cells = experiment: UPR induction in prostate cancer cell lines; format: cell-based, human; conditions: preliminary experiments
Description: FIG. 15 is an image of an immunoblot illustrating induction of UPR in a prostate cancer cell line. […] P-IRE1α indicates phosphorylated IRE1α. Similar results were obtained with DU145 prostate cancer cells.
This might be due to an accumulation of ubiquitylated proteins or due to an increase in ubiquitin ligase activity. Progression of the ER stress response could be monitored by a set of markers, many of which have been directly linked to the UPR. The most extensively investigated sensors that initiate the UPR are IRE1α, PERK, and ATF6, which transduce signals to a cascade of effectors. Many of these UPR 4 effectors function as transcription factors that induce the synthesis of ER chaperones, such as GRP78/BiP and GRP94, involved in maintaining protein homeostasis.

Sigma1 in SKBR3 cells = biological target: T1, Sigma1 in SKBR3 cells (Homo sapiens, UniProt Q99720); experiment: Sigma1 protein level and sub-cellular fractionation; format: cell-based; conditions: 12-16 hours
T1 construct: endogenous in cells; host or cells: SKBR3
T1 sequence (Q99720 whole entry): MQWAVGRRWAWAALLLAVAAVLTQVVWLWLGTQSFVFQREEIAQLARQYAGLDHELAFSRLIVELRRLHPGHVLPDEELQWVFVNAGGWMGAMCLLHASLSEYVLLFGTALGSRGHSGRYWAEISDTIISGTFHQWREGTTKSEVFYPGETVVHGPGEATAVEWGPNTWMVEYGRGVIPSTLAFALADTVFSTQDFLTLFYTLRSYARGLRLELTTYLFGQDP
Procedure: FIG. 66, comprising FIGS. 66A-66H, illustrates the non-limiting mechanism(s) of Sigma1 ligand actions, wherein Sigma ligand treatment induces differential localization of Sigma1. […] FIG. 66B is an immunoblot of the fractions collected from biochemical sub-cellular fractionation assay. […] FIG. 66C is a graph illustrating quantification of bands in FIG. 66B. FIG. 66D is a set of images of confocal immunofluorescence microscopy of Sigma1 in SKBR3 cells treated for 12-16 hours with IPAG. Green signal indicated Sigma1, blue signal (DAPI) indicated nucleus. FIG. 66E is a set of graphs illustrating quantification of fractions collected from biochemical sub-cellular fractionation assay performed using SKBR3 cells. […] Functional and physical association with LC3II and functional interaction with VCP are reported in the literature. FIG. 66H is a set of confocal microscopy images, with evidence of co-localization of poly-ubiquitylated proteins and p62SQSTM. […] The ubiquitin-p62SQSTM co-localization and distribution pattern changed subsequent to IPAG treatment. […] Sigma1 functional related and physical associated proteins were redistributed to the other parts of the cell, especially into autophagosome.

[3] = test system: MDA-MB-468 and MDA-MB-231 breast adenocarcinoma cells; experiment: Poly-ubiquitylated protein immunoblot, breast adenocarcinoma cells; format: cell-based, human; conditions: 10 μM, up to 24 hours, MDA-MB-468
Procedure: FIG. 34A is an image of an immunoblot of MDA-MB-468 breast adenocarcinoma cells treated with 10 μM Sigma1 antagonist (IPAG) for the indicated times, up to 24 hours. Total cell lysates were resolved by SDS-PAGE and immunoblotted with a poly-ubiquitin antibody P4D1. FIG. 34B is an image of an immunoblot of HepG2 hepatocellular carcinoma cells treated for 20 hours with 10 μM of indicated Sigma1 ligands.
FIG. 59, comprising FIGS. 59A-59B, illustrates the finding that the novel Sigma1 ligand JMS-51-58 modulated the ubiquitin proteasome system. FIG. 59A is an image of an immunoblot evaluating the levels of poly-ubiquitylated proteins of MDA-MB-468 breast adenocarcinoma treated for 16 hours with 10 μM of JMS-51-58. FIG. 59B is an image of an immunoblot evaluating the levels of poly-ubiquitylated proteins of MDA-MB-231 breast adenocarcinoma cells treated for 16 hours with 10 μM of JMS-51-58. The levels of poly-ubiquitylated proteins were evaluated by immunoblot.

MDA-MB-468 cells = experiment: Alamar blue assay of bortezomib potentiation; format: cell-based, human; conditions: 10 μM IPAG with 0.01 μM bortezomib, 20 hours
Procedure: In vitro cell proliferation and cell death were quantified by Alamar blue reduction. To evaluate potentiation of proteasome inhibitor (bortezomib)-induced cell death by IPAG, MDA-MB-468 cells were treated for 20 hours with a 10 μM IPAG or 0.01 μM bortezomib alone or both drugs combined. Cell death was confirmed by trypan blue exclusion assay (data not shown). Data are representative of an experiment performed in triplicate.

N=C(Nc1ccc(I)cc1)NC1C2CC3CC(C2)CC1C3 (centres unmarked) [IPAG, 1-(4-iodophenyl)-3-(2-adamantyl)guanidine]
mean FSC-H (relative cell size) ([1]; 24 hours, control 412±5): 341±7 and 331±3 | mean FSC-H (relative cell size) ([1]; 48 hours (d2)): 300±2 | inhibition of cell proliferation [2]: inhibited cell proliferation with comparable potencies in all cell lines | IRE1α and BiP levels (PC3 and DU145 PCa cells): salient induction of IRE1α and BiP levels | Sigma1 steady-state protein levels (Sigma1 in SKBR3 cells): Sigma1 steady-state protein levels do not change | Sigma1 sub-cellular distribution (Sigma1 in SKBR3 cells): Sigma1 distribution is altered | levels of ubiquitylated proteins [3]: increased level of ubiquitylated proteins | potentiation of bortezomib-induced cell death (MDA-MB-468 cells): potentiates bortezomib-induced adenocarcinoma cell death

Source: patent US9388126B2, “Sigma receptor ligands and methods of modulating cellular protein homeostasis using same” (Drexel University, priority 2012, dated 2016)
